The results in this text go back to ChEMBL document CHEMBL1201862, “PubChem BioAssay data set” (2004).

Molecules are shown by their SMILES.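 Five concentrations, 48 hours, 96-well plates. Abbreviation: GI50, concentration required for 50% inhibition of growth.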 Calls of active or inactive are those of the source. Cut-off read from the data, not from the text of the source: active = GI50 up to about 1.1 µM and inactive = higher. A value given as a limit tells only on which side of the number the result lay.

Among the test systems are OVCAR-8; UACC-62; NCI/ADR-RES; NCI-H23; A498; HOP-92; SK-MEL-28; Malme-3M; MDA-MB-435; COLO 205; SF-539; UACC-257; SW-620; RXF 393; HCC 2998; MOLT-4; MDA-MB-231; SNB-75; SNB-19; NCI-H460.
Test in all cases: NCI tumour cell line growth inhibition, 48 h

For the compound `CNc1ccc(C(=O)CC(O)CCC(C)C2OC(=O)CC(O)CC(=O)CC(O)CC(O)CC(O)CC(O)CC3(O)CC(O)C(C(=O)N4CCOCC4)C(CC(OC4OC(C)C(O)C(N)C4O)\C=C/C=C\C=C/C=C/C=C/C=C\C=C/C2C)O3)cc1` (stereo not given), the GI50 in the test with OVCAR-8 is 0.376 µM (active); in the test with UACC-62, 0.258 µM (active); in the test on NCI/ADR-RES it was 0.43 µM (active); in the test on NCI-H23, 0.329 µM (active); in the test with A498, 0.147 µM (active); in the test with HOP-92, 0.281 µM (active). In addition, the GI50 is 0.186 µM (active) in the test with SK-MEL-28; 0.137 µM (active) in the test with Malme-3M; 0.281 µM (active) with MDA-MB-435; 0.416 µM (active) in the test on COLO 205; 0.351 µM (active) in the test with SF-539; 0.185 µM (active) in the test on UACC-257. Also, the GI50 is 0.475 µM (active) with SW-620; 0.318 µM (active) with RXF 393; 0.374 µM (active) in the test on HCC 2998; 0.399 µM (active) with MOLT-4; 0.236 µM (active) in the test with MDA-MB-231; 0.409 µM (active) with SNB-75. Moreover, the GI50 with SNB-19 was 0.365 µM (active); with NCI-H460 it was 0.27 µM (active).

For `CCOC(=O)C1=C(C)N(CC(C)C)C2(O)C(OC)CC(=O)C3C(=O)N(c4ccccc4)C(=O)C132` (stereo not given), the GI50 with OVCAR-8 was 26.1 µM (inactive); in the test with UACC-62, 19.3 µM (inactive); with NCI/ADR-RES, 53.8 µM (inactive); in the test on NCI-H23, 35 µM (inactive); with A498, 78.5 µM (inactive); with HOP-92, 45.6 µM (inactive). The GI50 in the test with SK-MEL-28 is 23.8 µM (inactive); in the test on Malme-3M, 31.5 µM (inactive); with MDA-MB-435, 37 µM (inactive); in the test with COLO 205, 39 µM (inactive); with SF-539, 49.4 µM (inactive); in the test with UACC-257 it was 37.4 µM (inactive). For the same compound, the GI50 with SW-620 was 34 µM (inactive); in the test on RXF 393 it was 20.7 µM (inactive); in the test with HCC 2998, 24.8 µM (inactive); in the test on MOLT-4 it was 15.4 µM (inactive); in the test on MDA-MB-231 it was 89.1 µM (inactive); with SNB-75, 20 µM (inactive). Also, the GI50 with SNB-19 was 42.4 µM (inactive); in the test with NCI-H460, 36.5 µM (inactive).

Turning to `COC1CC(N)C(O)C(C)O1` (stereo not given), the GI50 with OVCAR-8, in the test on UACC-62, in the test with NCI/ADR-RES, with NCI-H23, with A498 and in the test with HOP-92 was > 100 µM (inactive) throughout. The GI50 in the test with SK-MEL-28, in the test with Malme-3M, in the test with MDA-MB-435, in the test with COLO 205, with SF-539 and in the test on UACC-257 was > 100 µM (inactive) in each case. Also, the GI50 in the test with SW-620, in the test on RXF 393, in the test with HCC 2998, with MOLT-4, with MDA-MB-231 and with SNB-75 was > 100 µM (inactive) each time. The GI50 in the test with SNB-19 and with NCI-H460 was > 100 µM (inactive) in each case.

On to `CC(=O)O[C@H]1C#C/C=C\C#CC[C@@H]2C(=O)N[C@@H]12`, for which the GI50 in the test with OVCAR-8 was 19.8 µM (inactive); in the test on UACC-62, 26.4 µM (inactive); in the test with NCI/ADR-RES it was 20.7 µM (inactive); in the test on NCI-H23, 11.2 µM (inactive); in the test with A498, 21.6 µM (inactive); in the test with HOP-92, 46.2 µM (inactive). Also, the GI50 in the test on SK-MEL-28 is 93.3 µM (inactive); in the test on Malme-3M, 22.9 µM (inactive); in the test with MDA-MB-435, > 100 µM (inactive); in the test with COLO 205 it was 50.4 µM (inactive); in the test with SF-539 it was 0.726 µM (active); with UACC-257, > 42.4 µM (inactive). For the same compound, the GI50 in the test on SW-620 was > 51.3 µM (inactive); in the test on RXF 393, 23.2 µM (inactive); with HCC 2998 it was 25.1 µM (inactive); with MOLT-4 it was 0.231 µM (active); in the test with MDA-MB-231, > 100 µM (inactive); in the test with SNB-75 it was 28.1 µM (inactive). The GI50 in the test with SNB-19 was 31.3 µM (inactive); with NCI-H460, 0.0382 µM (active).

Regarding `COc1ccc(NC(C)=O)cc1N1C(=O)/C(=C\c2cc(OC)c(OC)c(OC)c2)SC1c1ccccc1` (stereo not given), the GI50 in the test with OVCAR-8 was 48.1 µM (inactive); in the test on UACC-62, 67.9 µM (inactive); with NCI/ADR-RES, 45.6 µM (inactive); in the test on NCI-H23, 72.8 µM (inactive); in the test with A498 it was 75 µM (inactive); with HOP-92, 29.5 µM (inactive). In addition, the GI50 in the test with SK-MEL-28 is 41.9 µM (inactive); with Malme-3M, 47 µM (inactive); with MDA-MB-435, 36 µM (inactive); in the test on COLO 205, 39.6 µM (inactive); in the test on SF-539, 64.6 µM (inactive); in the test with UACC-257, 67.9 µM (inactive). Moreover, the GI50 is 52.7 µM (inactive) with SW-620; 33.5 µM (inactive) with RXF 393; > 100 µM (inactive) in the test with HCC 2998; 19.3 µM (inactive) with MOLT-4; 19.4 µM (inactive) with MDA-MB-231; 26.9 µM (inactive) in the test with SNB-75. In addition, the GI50 in the test with SNB-19 was 83.4 µM (inactive); in the test on NCI-H460 it was 43.2 µM (inactive).

On to `O=C(NC(Cc1c[nH]c2ccccc12)C(=O)O)/C(=C/c1ccccc1O)NC(=O)c1ccccc1` (stereo not given), for which the GI50 in the test on OVCAR-8 is 15.5 µM (inactive); in the test on UACC-62, 24.2 µM (inactive); in the test on NCI/ADR-RES, 13.9 µM (inactive); in the test with NCI-H23 it was 51.6 µM (inactive); in the test on A498, > 100 µM (inactive); in the test on HOP-92, 14.5 µM (inactive). The GI50 with SK-MEL-28 was > 100 µM (inactive); with Malme-3M, 22.4 µM (inactive); in the test with MDA-MB-435, 18.9 µM (inactive); in the test with COLO 205, > 100 µM (inactive); in the test with SF-539, 16.1 µM (inactive); in the test on UACC-257, > 100 µM (inactive). The GI50 with SW-620 was > 100 µM (inactive); in the test with RXF 393, 28.5 µM (inactive); with HCC 2998, 42.2 µM (inactive); in the test on MOLT-4, > 100 µM (inactive); in the test with MDA-MB-231, 21 µM (inactive); with SNB-75, 17.4 µM (inactive). Further, the GI50 is 22.7 µM (inactive) with SNB-19 and 33.2 µM (inactive) with NCI-H460.

Consider `OCC1CCCC1O` (stereo not given), for which the GI50 in the test with OVCAR-8, in the test on UACC-62, in the test on NCI/ADR-RES, in the test on NCI-H23, in the test on A498 and with HOP-92 was > 100 µM (inactive) each time. The GI50 in the test on SK-MEL-28, in the test with Malme-3M, with MDA-MB-435, in the test on COLO 205, with SF-539 and in the test on UACC-257 was > 100 µM (inactive) each time. Further, the GI50 in the test on SW-620, in the test with RXF 393, in the test on HCC 2998, in the test on MOLT-4, in the test on MDA-MB-231 and in the test on SNB-75 was > 100 µM (inactive) throughout. Further, the GI50 with SNB-19 and in the test on NCI-H460 was > 100 µM (inactive) throughout.

Turning to `CC(C)C1OC(=O)C(Cc2ccccc2)N(C)C(=O)C(C(C)C)OC(=O)C(Cc2ccccc2)N(C)C(=O)C(C(C)C)OC(=O)C(Cc2ccccc2)N(C)C1=O` (stereo not given), the GI50 with OVCAR-8 is 0.723 µM (active); in the test with UACC-62, 0.643 µM (active); in the test with NCI/ADR-RES, 0.771 µM (active); in the test on NCI-H23, 1.03 µM (active); with A498, 2.36 µM (inactive); in the test with HOP-92 it was 0.528 µM (active). The GI50 in the test with SK-MEL-28 was 0.78 µM (active); in the test on Malme-3M, 0.359 µM (active); in the test on MDA-MB-435 it was 0.641 µM (active); with COLO 205 it was 0.682 µM (active); in the test on SF-539, 1.03 µM (active); in the test on UACC-257, 0.748 µM (active). Besides, the GI50 is 0.685 µM (active) with SW-620; 0.887 µM (active) in the test with RXF 393; 0.762 µM (active) with HCC 2998; 0.508 µM (active) with MOLT-4; 1.37 µM (inactive) in the test with MDA-MB-231; 1.63 µM (inactive) in the test on SNB-75. For the same compound, the GI50 in the test with SNB-19 was 0.805 µM (active); in the test on NCI-H460 it was 0.865 µM (active).

For the compound `COc1ccc(CSCc2cc(OC)c(OC)c(OC)c2)cc1`, the GI50 in the test on OVCAR-8 was > 31.6 µM (inactive); in the test with UACC-62, > 43 µM (inactive); in the test on NCI/ADR-RES, > 31.6 µM (inactive); in the test with NCI-H23 it was > 76 µM (inactive); in the test on A498, > 100 µM (inactive); in the test with HOP-92, 23.9 µM (inactive). In addition, the GI50 was > 100 µM (inactive) in the test with SK-MEL-28; > 31.6 µM (inactive) in the test with Malme-3M; 4.43 µM (inactive) with MDA-MB-435; > 100 µM (inactive) in the test on COLO 205; > 71.9 µM (inactive) in the test with SF-539; > 31.6 µM (inactive) with UACC-257. Besides, the GI50 with SW-620 was > 83.2 µM (inactive); with RXF 393, > 82 µM (inactive); in the test on HCC 2998, > 31.6 µM (inactive); in the test on MOLT-4, > 48.5 µM (inactive); in the test with MDA-MB-231, > 100 µM (inactive); in the test with SNB-75 it was 37.5 µM (inactive). Besides, the GI50 in the test on SNB-19 was > 68.1 µM (inactive); in the test on NCI-H460 it was > 100 µM (inactive).

Regarding `Cc1ccc(/N=C2\SC(=NN(C)C)S\C2=N/c2ccc(C)cc2)cc1`, the GI50 in the test on OVCAR-8, with UACC-62, in the test with NCI/ADR-RES, in the test with NCI-H23, in the test on A498 and in the test on HOP-92 was > 100 µM (inactive) in each case. In addition, the GI50 with SK-MEL-28, with Malme-3M, in the test with MDA-MB-435, in the test on COLO 205, in the test on SF-539 and in the test on UACC-257 was > 100 µM (inactive) each time. The GI50 in the test on SW-620, in the test with RXF 393, in the test on HCC 2998, in the test on MOLT-4, in the test on MDA-MB-231 and with SNB-75 was > 100 µM (inactive) each time. Besides, the GI50 in the test on SNB-19 and in the test on NCI-H460 was > 100 µM (inactive) throughout.
